The values below come from ChEMBL document CHEMBL5725801, “Fused heterocyclic compounds as CaM kinase inhibitors” (2018).

One may read the EC50 as the concentration needed to bring the measured effect to its halfway point. The low end stands for greater potency, the high end for weaker potency.

A short description of this experiment: CaMKII Cell-Based Activity: CaMKII activity in neonatal rat ventricular myocytes (NRVM) was measured by monitoring the phosphorylation level of phospholamban using high-content imaging. NRVMs were plated in a clear bottom 384-well plate in medium supplemented with 10% fetal bovine serum (FBS) and incubated at 37° C., 5% CO2 overnight. The medium was changed to a serum-free medium and compounds were dosed to the cells. The cells were incubated at 37° C., 5% CO2 for 4 hours and were then treated with 100 nM ATX-II (Alomone Labs) to activate CaMKII. 10 minutes after the addition of ATX-II, the cells were fixed with 4% formaldehyde followed by permeabilization with 0.1% triton X100. The fixed cells were stained with an anti-phospho-phospholamban primary antibody (Santa Cruz Biotechnology) and an Alexa488-labeled anti-rabbit IgG secondary antibody (Life Technologies Corporation) as well as Hoechst 33342 (Life Technologies Corporation). The cells were imaged using an ArrayScan VTI (Cellomics) and analyzed for cells containing a positive fluorescent signal at 485 nm, reported as % responder. The % responders were plotted against the compound concentration to determine the compounds EC50.

For `CCN(CC)[C@@H](C)CNC(=O)c1cc(-c2cnn3ccc(-c4cccs4)nc23)nc(N2CC[C@H]2C(=O)N2CC(C)(C)C2)c1`, the EC50 was 0.079 µM. As for `CCN(CC)[C@@H](C)CNC(=O)c1cc(-c2cnn3ccc(-c4cccs4)nc23)nc(N2CC[C@@H](N)C2)c1`, the figure is 0.0688 µM; as for `CCN(CC)c1cc(C(=O)NC[C@H](C)N(CC)CC)cc(-c2cnn3ccc(-c4cccs4)nc23)n1`, 0.0404 µM; as for `CCN(CC)[C@@H](C)CNC(=O)c1cc(-c2cnn3ccc(-c4cccs4)nc23)nc(N2CC[C@H]2C(=O)N(C)OC)c1`, 0.0286 µM. As for `CCN(CC)[C@@H](C)CNC(=O)c1cc(-c2cnn3ccc(-c4cccs4)nc23)nc(N2CCC[C@@H]2C(N)=O)c1`, the figure is 0.166 µM. As for `COC1CN(c2cc(C(=O)N3[C@H]4CCNC[C@@H]3CC4)cc(-c3cnn4ccc(-c5cccs5)nc34)n2)C1`, the figure is 0.148 µM; as for `CCN(CC)[C@@H](C)CNC(=O)c1cc(-c2cnn3ccc(-c4ccncc4)nc23)nc(N2CC(OC)C2)c1`, 0.607 µM.

For `COC1CN(c2cc(C(=O)N3CC[C@H](N)C3)cc(-c3cnn4ccc(-c5cccs5)nc34)n2)C1`, the EC50 worked out at 0.154 µM. As for `CCN(CC)[C@@H](C)CNC(=O)c1cc(-c2cnn3ccc(-c4cccs4)nc23)nc(N2CC[C@H](C(=O)NC)C2)c1`, the figure is 0.0693 µM.

For the compound `CCN(CC)[C@@H](C)CNC(=O)c1cc(-c2cnn3ccc(-c4ccns4)nc23)nc(N2CC[C@H]2C(=O)NC)c1`, the 50% effective concentration (EC50) was found to be 0.0327 µM. As for `CCN(CC)[C@@H](C)CNC(=O)c1cc(-c2cnn3ccc(-c4cccs4)nc23)nc(N2CC[C@H]2C(=O)N2CC3CC3C2)c1` (stereo not given in full), the figure is 0.0339 µM; as for `CCN(CC)[C@@H](C)CNC(=O)c1cc(-c2cnn3ccc(-c4cccs4)nc23)nc(N2CCC[C@@H]2COC)c1`, 0.26 µM. In turn, `CCN(CC)[C@@H](C)CNC(=O)c1cc(-c2cnn3ccc(-c4cccs4)nc23)nc(N2CC[C@H]2C(=O)NCC2CC2)c1` yielded an EC50 of 0.0334 µM.

The compound `CCN(CC)[C@@H](C)CNC(=O)c1cc(-c2cnn3ccc(-c4cccs4)nc23)nc(N2CCC[C@@H]2CO)c1` registered an EC50 of 0.0459 µM.

In turn, `CCN(CC)[C@@H](C)CNC(=O)c1cc(-c2cnn3ccc(-c4cccs4)nc23)nc(N2CC[C@H]2C(=O)NCC(F)F)c1` registered an EC50 of 0.0275 µM.

As to `CC(C)(O)CNc1cc(C(=O)N2CC3CCC(C2)NC3)cc(-c2cnn3ccc(-c4cccs4)nc23)n1` (stereo not given), a half-maximal effect (EC50) was put at 0.406 µM. On to `CCN(CC)[C@@H](C)CNC(=O)c1cc(-c2cnn3ccc(-c4cccs4)nc23)nc(N2CC[C@H]2C(=O)N(C)C)c1`, for which the EC50 came to 0.0107 µM.

Regarding `CN(CCn1ccnc1)c1cc(C(=O)N2CC3CCC(C2)NC3)cc(-c2cnn3ccc(-c4cccs4)nc23)n1` (stereo not given), a half-maximal effect (EC50) was put at 0.449 µM. `CCN1CCC[C@H]1CNC(=O)c1cc(-c2cnn3ccc(-c4cccs4)nc23)nc(N2CC(OC)C2)c1`: a half-maximal effect (EC50) was put at 0.181 µM. Turning to `CCN(CC)CCNC(=O)c1cc(-c2cnn3ccc(-c4cccs4)nc23)nc(N2CC(C)(O)C2)c1`, it took 0.0537 µM to reach a half-maximal effect (EC50). As for `CCN(CC)[C@@H](C)CNC(=O)c1cc(-c2cnn3ccc(-c4cccs4)nc23)nc(N2CC[C@H]2C(=O)N2CCOCC2)c1`, the figure is 0.0213 µM; as for `COC1CN(c2cc(C(=O)NC[C@@H]3CCCN3C)cc(-c3cnn4ccc(-c5cccs5)nc34)n2)C1`, 0.326 µM; as for `CCN(CC)[C@@H](C)CNC(=O)c1cc(-c2cnn3ccc(-c4cccs4)nc23)nc(N2CC[C@H]2C(=O)NCCO)c1`, 0.0849 µM. As for `CCN(CC)CCNC(=O)c1cc(NCCO)nc(-c2cnn3ccc(-c4cccs4)nc23)c1`, the figure is 0.136 µM; as for `CCN(CC)[C@@H](C)CNC(=O)c1cc(-c2cnn3ccc(-c4cccs4)nc23)nc(N2CCC[C@H]2CO)c1`, 0.112 µM.

Compound `CCN(CC)[C@@H](C)CNC(=O)c1cc(-c2cnn3ccc(-c4cccs4)nc23)nc(N2CC[C@H](N)C2)c1` registered a concentration giving a half-maximal response (EC50) of 0.0687 µM. As for `CCN(CC)[C@@H](C)CNC(=O)c1cc(-c2cnn3ccc(-c4cccs4)nc23)nc(N2CCO[C@H](CO)C2)c1`, the figure is 0.0435 µM. As for `CCN(CC)[C@@H](C)CNC(=O)c1cc(-c2cnn3ccc(-c4cccs4)nc23)nc(N2CCC[C@@H]2C(=O)NC)c1`, the figure is 0.815 µM; as for `O=C(c1cc(-c2cnn3ccc(-c4cccs4)nc23)nc(N2CCN(C3COC3)CC2)c1)N1CC2CCC(C1)NC2` (stereo not given), 0.0818 µM; as for `CCN(CC)[C@@H](C)CNC(=O)c1cc(-c2cnn3ccc(-c4cccs4)nc23)nc(N2CC[C@H]2C(=O)Nc2nccs2)c1`, 0.127 µM.

Take `COC1CN(c2cc(C(=O)N3CC[C@H](N)C3)cc(-c3cnn4ccc(-c5ccccc5)nc34)n2)C1`: the EC50 turned out to be 0.0429 µM. As for `CCN(CC)[C@@H](C)CNC(=O)c1cc(-c2cnn3ccc(-c4ccccc4)nc23)nc(N2CC[C@H]2C(=O)NC)c1`, the figure is 0.146 µM; as for `CCN(CC)[C@@H](C)CNC(=O)c1cc(-c2cnn3ccc(-c4cccs4)nc23)nc(N2CC[C@H]2C(=O)N2CC(OC)C2)c1`, 0.0325 µM; as for `CCN(CC)[C@@H](C)CNC(=O)c1cc(-c2cnn3ccc(-c4cccs4)nc23)nc(N2CC[C@H]2C(N)=O)c1`, 0.036 µM. As for `CCN(CC)[C@@H](C)CNC(=O)c1cc(-c2cnn3ccc(-c4cccs4)nc23)nc(N2CC[C@H]2C(=O)N2CCCC2)c1`, the figure is 0.0223 µM; as for `COC1CN(c2cc(C(=O)NC[C@@H]3CCCN3)cc(-c3cnn4ccc(-c5cccs5)nc34)n2)C1`, 0.261 µM; as for `CCN(CC)[C@@H](C)CNC(=O)c1cc(-c2cnn3ccc(-c4cccs4)nc23)nc(N2CCC(C(N)=O)CC2)c1`, 0.115 µM. For `CCN(CC)[C@@H](C)CNC(=O)c1cc(-c2cnn3ccc(-c4cccs4)nc23)nc(N2CC[C@H]2C(=O)N(C)O)c1`, the EC50 turned out to be 0.0256 µM. Take `CCN(CC)[C@@H](C)CNC(=O)c1cc(-c2cnn3ccc(-c4cccs4)nc23)nc(N2CC[C@@H](C(=O)NC)C2)c1`: the EC50 was found to be 0.0469 µM. As for `CNC(=O)[C@@H]1CCN1c1cc(C(=O)NC[C@H](C)N)cc(-c2cnn3ccc(-c4cccs4)nc23)n1`, the figure is 6.74 µM; as for `CCN(CC)[C@@H](C)CNC(=O)c1cc(-c2cnn3ccc(-c4cccs4)nc23)nc(N2CC[C@H]2C(=O)NCC#N)c1`, 0.0653 µM. Take `CCN(CC)[C@@H](C)CNC(=O)c1cc(-c2cnn3ccc(-c4cccs4)nc23)nc(N2CCC[C@H]2C(N)=O)c1`: the response was half-maximal at 0.259 µM (EC50). Regarding `CCN(CC)[C@@H](C)CNC(=O)c1cc(-c2cnn3ccc(-c4cccs4)nc23)nc(N2CC[C@H]2C(=O)O)c1`, a half-maximal effect (EC50) was put at 0.0893 µM. `CCN(CC)[C@@H](C)CNC(=O)c1cc(-c2cnn3ccc(-c4cccs4)nc23)nc(N2CC[C@H]2C(=O)N2CC(F)C2)c1` yielded an EC50 of 0.0162 µM.

On to `CCN(CC)[C@@H](C)CNC(=O)c1cc(-c2cnn3ccc(-c4cccs4)nc23)nc(N2CC[C@H]2C(=O)NCCOC)c1`, for which the concentration for a half-maximal effect (EC50) was 0.0471 µM. As for `CCN(CC)C(=O)[C@@H]1CCN1c1cc(C(=O)NC[C@H](C)N(CC)CC)cc(-c2cnn3ccc(-c4cccs4)nc23)n1`, the figure is 0.0252 µM. As for `CCN(CC)[C@@H](C)CNC(=O)c1cc(-c2cnn3ccc(-c4cccs4)nc23)nc(N2CC[C@H]2COC)c1`, the figure is 0.0784 µM. In turn, `CCN(CC)[C@@H](C)CNC(=O)c1cc(-c2cnn3ccc(-c4cccs4)nc23)nc(N2CCNC(=O)C2)c1` came in with an EC50 of 0.096 µM. Take `CCN(CC)[C@@H](C)CNC(=O)c1cc(-c2cnn3ccc(-c4cccs4)nc23)nc(N2CC[C@H]2C(=O)NCC(F)(F)F)c1`: the midpoint of the response, the EC50, lay at 0.0416 µM. As for `CCN(CC)[C@@H](C)CNC(=O)c1cc(-c2cnn3ccc(-c4cccs4)nc23)nc(N2CC[C@H]2C(=O)N2CC(O)C2)c1`, the figure is 0.152 µM; as for `CCN(CC)[C@@H](C)CNC(=O)c1cc(-c2cnn3ccc(-c4cccs4)nc23)nc(N2CC[C@H]2C(=O)N2CC(S(C)(=O)=O)C2)c1`, 0.281 µM; as for `COC1CN(c2cc(C(=O)N3CC4CCC(C3)NC4)cc(-c3cnn4ccc(-c5cccs5)nc34)n2)C1` (stereo not given), 0.0636 µM.

Take `CCN(CC)[C@@H](C)CNC(=O)c1cc(-c2cnn3ccc(-c4cccs4)nc23)nc(N2CC[C@H]2C(=O)N2CC(NS(C)(=O)=O)C2)c1`: the EC50 came out at 0.147 µM. As to `COCCNc1cc(C(=O)N2CC3CCC(C2)NC3)cc(-c2cnn3ccc(-c4cccs4)nc23)n1` (stereo not given), the midpoint of the response, the EC50, lay at 0.124 µM.

`CCN[C@@H](C)CNC(=O)c1cc(-c2cnn3ccc(-c4cccs4)nc23)nc(N2CC[C@H]2C(=O)NC)c1` showed an EC50 of 0.654 µM. As for `CCNC(=O)[C@@H]1CCN1c1cc(C(=O)NC[C@H](C)N(CC)CC)cc(-c2cnn3ccc(-c4cccs4)nc23)n1`, the figure is 0.0285 µM; as for `CCNc1cc(C(=O)NC[C@H](C)N(CC)CC)cc(-c2cnn3ccc(-c4cccs4)nc23)n1`, 0.0978 µM; as for `CCN(CC)[C@@H](C)CNC(=O)c1cc(-c2cnn3ccc(-c4cccs4)nc23)nc(N2CC[C@H]2C(=O)NC2CC2)c1`, 0.028 µM. Compound `CCN(CC)[C@@H](C)CNC(=O)c1cc(-c2cnn3ccc(-c4cccs4)nc23)nc(N2CC[C@H]2C(=O)N2CCS(=O)(=O)CC2)c1` showed an EC50 of 0.118 µM. With `CCN(CC)[C@@H](C)CNC(=O)c1cc(-c2cnn3ccc(-c4cccs4)nc23)nc(N2CC[C@@H]2COC)c1`, a half-maximal response (EC50) required 0.0801 µM. As for `COC1CN(c2cc(C(=O)N3CC4CCC(C3)NC4)cc(-c3cnn4ccc(-c5ccccc5)nc34)n2)C1` (stereo not given), the figure is 0.0956 µM; as for `CCN(CC)[C@@H](C)CNC(=O)c1cc(-c2cnn3ccc(-c4cccs4)nc23)nc(N2CC[C@H]2C(=O)NCCF)c1`, 0.053 µM; as for `CCN(CC)[C@@H](C)CNC(=O)c1cc(-c2cnn3ccc(-c4cccs4)nc23)nc(N2CC[C@H]2C(=O)NOC)c1`, 0.0842 µM. As for `CCN(CC)[C@@H](C)CNC(=O)c1cc(-c2cnn3ccc(-c4cccs4)nc23)nc(N2CC[C@H]2C(=O)N2CC(F)(F)C2)c1`, the figure is 0.0294 µM; as for `CCN(CC)[C@@H](C)CNC(=O)c1cc(-c2cnn3ccc(-c4cccs4)nc23)nc(N2CCC[C@H]2C(=O)NC)c1`, 0.114 µM.
